Experimental data taken from patent US8975249B2, “Heterocyclic compounds and uses thereof” (Celgene Avilomics Research, Inc., priority 2010, dated 2015).
Read-outs that look alike come from different tables or passages of the source.

Experiments:
[1] = system: H1975 cells (EGFR L858R/T790M); assay: Cell proliferation (CellTiter Glo), H1975 cells
Protocol: (§1) A431 human epidermoid carcinoma, H1975 human NSCLC and HCC827 human NSCLC adenocarcinoma cells were obtained from the American Type Culture Center (Manassas, Va.). A431 cells were grown in DMEM (Invitrogen, Carlsbad, Calif.) supplemented with 10% FBS (HyClone, South Logan, Utah) and 1% Penicillin-Streptomycin (P/S, Lonza, Walkersville, Md.).
(§2) Cells were plated in Growth Media supplemented with 5% FBS and 1% P/S at a density of 3,000 cells per well in 96 well tissue culture plates (Corning). […] Growth inhibition (GI50) values were determined by Graph Pad Prism.

[2] = system: HCC827 cells (EGFR delE746-A750); assay: Cell proliferation (CellTiter Glo), HCC827 cells
Protocol: as §1, §2

EGFR (WT) = EGFR (WT) (Homo sapiens (Human), UniProt P00533); assay: Omnia biochemical assay, EGFR-WT active enzyme; settings: [EGFR-WT]=5 nM, [ATP]=15 uM, 30 min pre-incubation
Protocol: Kinase reactions were started with the addition of 45 μL of the ATP/Tyr-Sox peptide substrate mix and monitored every 71 seconds for 60 minutes at λex360/λem485 in a Synergy^4 plate reader from BioTek (Winooski, Vt.).
The compound numbers correspond to the compound numbers in Table 1.

[3] = proliferation GI50 WT EGFR / H1975
[4] = proliferation GI50 WT EGFR / HCC827

EGFR (WT), sequence (P00533 25-1210): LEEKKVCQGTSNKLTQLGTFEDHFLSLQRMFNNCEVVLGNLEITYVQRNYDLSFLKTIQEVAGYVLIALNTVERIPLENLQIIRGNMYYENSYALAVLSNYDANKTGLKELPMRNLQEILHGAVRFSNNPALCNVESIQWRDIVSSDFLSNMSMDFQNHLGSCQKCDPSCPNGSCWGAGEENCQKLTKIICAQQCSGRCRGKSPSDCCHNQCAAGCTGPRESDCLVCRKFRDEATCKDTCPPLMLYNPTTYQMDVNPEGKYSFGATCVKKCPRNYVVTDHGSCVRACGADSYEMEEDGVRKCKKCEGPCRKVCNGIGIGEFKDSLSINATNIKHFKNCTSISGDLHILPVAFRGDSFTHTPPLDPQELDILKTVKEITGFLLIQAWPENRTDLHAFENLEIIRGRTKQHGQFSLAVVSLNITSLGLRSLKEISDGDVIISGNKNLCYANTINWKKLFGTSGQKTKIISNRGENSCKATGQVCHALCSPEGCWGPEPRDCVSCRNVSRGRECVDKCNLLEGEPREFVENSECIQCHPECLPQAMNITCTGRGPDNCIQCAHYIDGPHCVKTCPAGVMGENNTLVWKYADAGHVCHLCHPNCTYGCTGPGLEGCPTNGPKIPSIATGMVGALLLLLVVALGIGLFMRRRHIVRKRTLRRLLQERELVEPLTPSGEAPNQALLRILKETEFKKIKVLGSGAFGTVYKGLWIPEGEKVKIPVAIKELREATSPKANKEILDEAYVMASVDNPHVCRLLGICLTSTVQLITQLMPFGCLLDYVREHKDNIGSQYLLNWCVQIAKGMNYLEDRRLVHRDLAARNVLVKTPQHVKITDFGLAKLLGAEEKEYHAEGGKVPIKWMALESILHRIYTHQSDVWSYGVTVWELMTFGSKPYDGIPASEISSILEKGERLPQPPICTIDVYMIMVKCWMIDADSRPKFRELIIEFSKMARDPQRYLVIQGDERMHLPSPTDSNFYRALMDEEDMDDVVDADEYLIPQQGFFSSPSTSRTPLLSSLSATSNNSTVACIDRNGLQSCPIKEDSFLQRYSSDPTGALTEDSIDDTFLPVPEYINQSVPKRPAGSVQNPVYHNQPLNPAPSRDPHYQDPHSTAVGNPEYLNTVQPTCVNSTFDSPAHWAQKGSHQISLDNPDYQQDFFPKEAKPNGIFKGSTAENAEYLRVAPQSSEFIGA

Compound	Ratio WT/mutant (H1975) [1, 3]	Ratio WT/mutant (HCC827) [2, 4]	IC50 (EGFR (WT))	Ratio WT/mutant (H1975) [1]	Ratio WT/mutant (HCC827) [2]
C=CC(=O)Nc1cccc(Oc2nc(Nc3ccc(N4CCN(C(=O)OC(C)(C)C)CC4)cc3OCC)ncc2Cl)c1 [Compound I-18, tert-butyl 4-(4-(4-(3-acrylamidophenoxy)-5-chloropyrimidin-2-ylamino)-3-ethoxyphenyl)piperazine-1-carboxylate]	>1	>5	> 1000 nM		
C=CC(=O)Nc1cccc(Nc2nc(Nc3ccc(N4CCCN(C(=O)C(F)(F)F)CC4)cc3OC)ncc2C(F)(F)F)c1 [Compound I-19, N-(3-(2-(2-methoxy-4-(4-(2,2,2-trifluoroacetyl)-1,4-diazepan-1-yl)phenylamino)-5-(trifluoromethyl)pyrimidin-4-ylamino)phenyl)acrylamide]	>5	>10	100 to 300 nM		
C=CC(=O)Nc1cccc(Oc2nc(Nc3ccc(N4CCN(C(=O)OC)CC4)cc3OC)ncc2C(F)(F)F)c1 [Compound I-20, methyl 4-(4-(4-(3-acrylamidophenoxy)-5-(trifluoromethyl)pyrimidin-2-ylamino)-3-methoxyphenyl)piperazine-1-carboxylate]			10 to 30 nM	>5	>15
C=CC(=O)Nc1cccc(Oc2nc(Nc3ccc(N4CCN(C(=O)CC(C)(C)C)CC4)cc3OC)ncc2Cl)c1 [Compound I-23, N-(3-(5-chloro-2-(4-(4-(3,3-dimethylbutanoyl)piperazin-1-yl)-2-methoxyphenylamino)pyrimidin-4-yloxy)phenyl)acrylamide]	>1	>20	100 to 300 nM		
C=CC(=O)Nc1cccc(Nc2nc(Nc3ccc(N4CCN(C(=O)NC)CC4)cc3OC)ncc2C(F)(F)F)c1 [Compound I-28, 4-(4-(4-(3-acrylamidophenylamino)-5-(trifluoromethyl)pyrimidin-2-ylamino)-3-methoxyphenyl)-N-methylpiperazine-1-carboxamide]	>5	>50	1 to 10 nM		
C=CC(=O)Nc1cccc(Nc2nc(Nc3ccc(N4CCN(C(=O)CO)CC4)cc3OC(F)F)ncc2C(F)(F)F)c1 [Compound I-31, N-(3-(2-(2-(difluoromethoxy)-4-(4-(2-hydroxyacetyl)piperazin-1-yl)phenylamino)-5-(trifluoromethyl)pyrimidin-4-ylamino)phenyl)acrylamide]			< 1 nM		
C=CC(=O)Nc1cccc(Nc2nc(Nc3ccc(N4CCN(C(C)=O)CC4)cc3OC(F)F)ncc2C(F)(F)F)c1 [Compound I-32, N-(3-(2-(4-(4-acetylpiperazin-1-yl)-2-(difluoromethoxy)phenylamino)-5-(trifluoromethyl)pyrimidin-4-ylamino)phenyl)acrylamide]			< 1 nM		
C=CC(=O)Nc1cccc(Oc2nc(Nc3ccc(N4CCOCC4)cc3OC(F)F)ncc2Cl)c1 [Compound I-36, N-(3-(5-chloro-2-(2-(difluoromethoxy)-4-morpholinophenylamino)pyrimidin-4-yloxy)phenyl)acrylamide]	>25	>50	10 to 30 nM		
C=CC(=O)Nc1cccc(Oc2nc(Nc3ccc(N4CCCOCC4)cc3OC)ncc2Cl)c1 [Compound I-37, N-(3-(5-chloro-2-(2-methoxy-4-(1,4-oxazepan-4-yl)phenylamino)pyrimidin-4-yloxy)phenyl)acrylamide]	>1	>10	30 to 100 nM		
C=CC(=O)Nc1cccc(Nc2nc(Nc3ccc(N4CCCOCC4)cc3OC)ncc2C(F)(F)F)c1 [Compound I-38, N-(3-(2-(2-methoxy-4-(1,4-oxazepan-4-yl)phenylamino)-5-(trifluoromethyl)pyrimidin-4-ylamino)phenyl)acrylamide]	>1	>5	10 to 30 nM		
C=CC(=O)Nc1cccc(Oc2nc(Nc3ccc(N4CCCN(C(=O)OC(C)(C)C)CC4)cc3OC)ncc2C(F)(F)F)c1 [Compound I-39, tert-butyl 4-(4-(4-(3-acrylamidophenoxy)-5-(trifluoromethyl)pyrimidin-2-ylamino)-3-methoxyphenyl)-1,4-diazepane-1-carboxylate]	<1	>1	> 1000 nM		
C=CC(=O)Nc1cccc(Oc2nc(Nc3ccc(N4CCN(C(=O)OC(C)(C)C)CC4)cc3OC)ncc2C(F)(F)F)c1 [Compound I-42, tert-butyl 4-(4-(4-(3-acrylamidophenoxy)-5-(trifluoromethyl)pyrimidin-2-ylamino)-3-methoxyphenyl)piperazine-1-carboxylate]			300 to 1000 nM		
C=CC(=O)Nc1cccc(Oc2nc(Nc3ccc(N4CCCN(C(=O)OC(C)(C)C)CC4)cc3OC)ncc2Cl)c1 [Compound I-43, tert-butyl 4-(4-(4-(3-acrylamidophenoxy)-5-chloropyrimidin-2-ylamino)-3-methoxyphenyl)-1,4-diazepane-1-carboxylate]			300 to 1000 nM		
C=CC(=O)Nc1cccc(Oc2nc(Nc3ccc(N4CCN(C(=O)OC(C)(C)C)CC4)cc3OC(F)(F)F)ncc2Cl)c1 [Compound I-47, tert-butyl 4-(4-(4-(3-acrylamidophenoxy)-5-chloropyrimidin-2-ylamino)-3-(trifluoromethoxy)phenyl)piperazine-1-carboxylate]			> 1000 nM		
C=CC(=O)Nc1cccc(Nc2nc(Nc3ccc(N4CCN(C(=O)OC(C)(C)C)[C@H](C(=O)OC)C4)cc3OC)ncc2C(F)(F)F)c1 [Compound I-50, (S)-1-tert-butyl 2-methyl 4-(4-(4-(3-acrylamidophenylamino)-5-(trifluoromethyl)pyrimidin-2-ylamino)-3-methoxyphenyl)piperazine-1,2-dicarboxylate]	>10	>50			
